Test results from patent US7244738B2, “Arylamine-substituted quinazolinone compounds useful as alpha 1A/B adrenergic receptor antagonists” (Roche Palo Alto LLC, priority 2003, dated 2007).
Where a name gives a salt, the structure may show the parent alone.

SMILES | melting point
COc1cc2[nH]c(N(C)Cc3ccc(C4=NCCN4C)cc3)nc(=O)c2c(C)c1OC [Example 237, 6,7-Dimethoxy-5-methyl-2-{methyl[4-(1-methyl-,5-dihydro-1H-imidazol-2-yl)-benzyl]-amino}-1H-quinazolin-4-oine] | 179 to 181 °C
CN/C(C)=N/c1cccc(CN(C)c2nc(=O)c3c(C)c(OC)c(OC)cc3[nH]2)c1 [Example 195, N-(3-{[(6,7-Dimethoxy-5-methyl-4-oxo-1,4-dihydro-quinazolin-2-yl)-methyl-amino]-methyl}-phenyl)-N′-methyl-acetamide] | 233.1 to 233.9 °C
COc1cc2[nH]c(N(C)Cc3cccc(CN(C)CCO)c3)nc(=O)c2c(OC)c1OC (as salt: HCl) [Example 116, 2-[(3-{[(2-Hydroxy-ethyl)-methyl-amino]-methyl}-benzyl)-methyl-amino]-5,6,7-trimethoxy-1H-quinazolin-4-one] | 169 to 171.9 °C
CONC(=O)Nc1cccc(CN(C)c2nc(=O)c3c(OC)c(OC)c(OC)cc3[nH]2)c1 [Example 181, N-Methoxy-N′-(3-{[methyl-(5,6,7-trimethoxy-4-oxo-1,4-dihydro-quinazolin-2-yl)-amino]-methyl-}-phenyl)-urea] | 165 to 167 °C
CCN(C)Cc1cccc(CN(C)c2nc(=O)c3c(OC)c(OC)c(OC)cc3[nH]2)c1 [Example 114, 2-({3-[(Ethyl-methyl-amino)-methyl]-benzyl}-methyl-amino)-5,6,7-trimethoxy-1H-quinazolin-4-one] | 106.5 to 108.9 °C
COc1cc2nc(N(C)Cc3cccc(OC[S+](C)[O-])c3)[nH]c(=O)c2c(C)c1OC (centres unmarked) [Example F-2, 2-[(3-Methanesulfinylmethoxy-benzyl)-methyl-amino]-6,7-dimethoxy-5-methyl-1H-quinazolin-4-one] | 191 to 193.5 °C
COc1cc2[nH]c(N(C)Cc3cccc(C(C)N(C)C(=O)N(C)C)c3)nc(=O)c2c(OC)c1OC (centres unmarked) [Example 293] | 68 to 70 °C
COc1cc2[nH]c(N(C)Cc3ccc(CN4CCC(O)C4)cc3)nc(=O)c2c(C)c1OC (centres unmarked) | 166 to 169 °C
COc1cc2[nH]c(N(C)Cc3cccc(OCCO)c3)nc(=O)c2c(C)c1OC [Example F-9, 2-{[3-(2-Hydroxy-ethoxy)-benzyl]-methyl-amino}-6,7-dimethoxy-5-methyl-1H-quinazolin-4-one] | 180.5 to 183.1 °C
CCCN(C)Cc1cccc(CN(C)c2nc(=O)c3c(C)c(OC)c(OC)cc3[nH]2)c1 [Example 68, 6,7-Dimethoxy-5-methyl-2-(methyl-{3-[(methyl-propyl-amino)-methyl]-benzyl}-amino)-1H-quinazolin-4-one] | 128.1 to 129.1 °C
COc1cc2nc(N(C)Cc3cccc(OCCO)c3)[nH]c(=O)c2c(OC)c1OC [Example F-1, 2-{[3-(2-Hydroxy-ethoxy)-benzyl]-methyl-amino}-5,6,7-trimethoxy-1H-quinazolin-4-one] | 146 to 147.5 °C
COc1cc2[nH]c(N(C)Cc3cccc(N4CCC(C)C4=O)c3)nc(=O)c2c(C)c1OC (centres unmarked) [Example 256, 6,7-Dimethoxy-5-methyl-2-{methyl-[3-(3-methyl-2-oxo-pyrrolidin-1-yl)-benzyl]-amino}-1H-quinazolin-4-one] | 210.8 to 211.6 °C
COc1cc2nc(N(C)Cc3cccc(N4CCCC4=O)c3)[nH]c(=O)c2c(OC)c1OC [Example H-1, 5,6,7-Trimethoxy-2-{methyl-[3-(2-oxo-pyrrolidin-1-yl)-benzyl]-amino}-1H-quinazolin-4-one] | 165.5 to 166.5 °C
COc1cc2[nH]c(N(C)Cc3ccccc3N)nc(=O)c2c(OC)c1OC (as salt: HCl) [Example 104, 2-[(2-Amino-benzyl)-methyl-amino]-5,6,7-trimethoxy-1H-quinazolin-4-one] | > 300 °C (dec.)
COc1cc2[nH]c(N(C)C(C)c3cccc(NCCNC(C)=O)c3)nc(=O)c2c(C)c1OC (centres unmarked) [Example 191, N-[2-(3-{1-[(6,7-Dimethoxy-5-methyl-4-oxo-1,4-dihydro-quinazolin-2-yl)-methyl-amino]-ethyl}-phenylamino)-ethyl]-acetamide] | 220.6 to 222.4 °C
COc1cc2[nH]c(N(C)Cc3cccc(CN4CCC(O)CC4)c3)nc(=O)c2c(OC)c1OC [Example 39, 2-{[3-(4-Hydroxy-piperidin-1-ylmethyl)-benzyl]-methyl-amino}-5,6,7-trimethoxy-1H-quinazolin-4-one] | 97.5 to 104.7 °C
COCCN1CCN=C1c1cccc(CN(C)c2nc(=O)c3c(C)c(OC)c(OC)cc3[nH]2)c1 [Example 246, 6,7-Dimethoxy-2-*{3-[1-(2-methoxy-ethyl)-4,5-dihydro-1H-imidazol-2-yl]-benzyl}-methyla-mino)-5-methyl-1H-quinazolin-4-one] | 161 to 164.4 °C
CCc1c(OC)c(OC)cc2[nH]c(N(C)Cc3cccc(N=C4N(C)CCN4C)c3)nc(=O)c12 (as salt: salt) [Example 207, 2-{[3-(1,3-dimethyl-imidazolidin-2-ylideneamino)-benzyl]-methyl-amino}-5-ethyl-6,7-dimethoxy-1H-quinaolin-4-one] | 212.5 to 219.9 °C
CNCc1ccc(CN(C)c2nc(=O)c3c(C)c(OC)c(OC)cc3[nH]2)cc1 (as salt: HCl) [Example 55, 6,7-Dimethoxy-5-methyl-2-[methyl-(4-methylaminomethyl-benzyl)-amino]-1H-quinazolin-4-one] | 264 to 268 °C

The next lines start with the values.

melting point | SMILES
221.8 to 223 °C | COc1cc2[nH]c(N(C)Cc3cccc(/N=C(\C)N(C)C)c3)nc(=O)c2cc1OC [Example 70, N′-(3-{[(6,7-Dimethoxy-4-oxo-1,4-dihydro-quinazolin-2-yl)-methyl-amino]-methyl}-phenyl)-N,N-dimethyl-acetamidine]
220 to 223 °C | COc1cc2nc(N(C)Cc3cccc(N4CCCC4)c3)[nH]c(=O)c2cc1OC (as salt: salt) [Example A-1, 6,7-Dimethoxy-2-[methyl-(3-pyrrolidin-1-yl-benzyl)-amino]-1H-quinazolin-4-one]
143.3 to 144.4 °C | COc1cc2[nH]c(N(C)Cc3cccc(CNC(C)C)c3)nc(=O)c2c(C)c1OC [Example 67, 2-{[3-(Isopropylamino-methyl)-benzyl]-methyl-amino}-6,7-dimethoxy-5-methyl-1H-quinazolin-4-one]
141.3 to 144.7 °C | COc1cc2[nH]c(N(C)Cc3cccc(N=C4NCCN4)c3)nc(=O)c2c(C)c1OC [Example G-38, 2-{[3-(Imidazolidin-2-ylideneamino)-benzyl]-methyl-amino}-6,7-dimethoxy-5-methyl-1H-quinazolin-4-one]
265 to 266 °C | COc1cc2[nH]c(N(C)Cc3cccc(N4CCNC4=O)c3)nc(=O)c2c(C)c1OC [Example 76, 6,7-Dimethoxy-5-methyl-2-{methyl-[3-(2-oxo-imidazolidin-1-yl)-benzyl]-amino}-1H-quinazolin-4-one]
199.7 to 201.9 °C | COc1cc2[nH]c(N(C)Cc3ccc(OCC(O)CO)cc3)nc(=O)c2c(C)c1OC (centres unmarked) [Example 14, 2-{[4-(2,3-Dihydroxy-propoxy)-benzyl]-methyl-amino}-6,7-dimethoxy-5-methyl-1H-quinazolin-4-one]
148 to 150 °C | COc1cc2[nH]c(N(C)Cc3cccc(N=C(C(C)C)N(C)C)c3)nc(=O)c2c(OC)c1OC [Example G-32, N,N-Dimethyl-N′-(3-{[methyl-(5,6,7-trimethoxy-4-oxo-1,4-dihydro-quinazolin-2-yl)-amino]-methyl}-phenyl)-isobutyramidine]
131.8 to 134.4 °C | CNC(C)c1cccc(CN(C)c2nc(=O)c3c(OC)c(OC)c(OC)cc3[nH]2)c1 (centres unmarked) [Example 63, 5,6,7-Trimethoxy-2-{methyl-[3-(1-methylamino-ethyl)-benzyl]-amino}-1H-quinazolin-4-one]
229 to 231 °C | COc1ccnc(N2CCN(c3nc(=O)c4c(OC)c(OC)c(OC)cc4[nH]3)CC2)c1 [Example 73, 5,6,7-Trimethoxy-2-[4-(4-methoxy-pyridin-2-yl)-piperazin-1-yl]-1H-quinazolin-4-one]
125.9 to 128 °C | COc1cc2[nH]c(N(C)Cc3cccc(C(C)N(C)C(=O)N(C)C)c3)nc(=O)c2c(C)c1OC (centres unmarked) [Example 4, 1-[1-(3-{[(6,7-Dimethoxy-5-methyl-4-oxo-1,4-dihydro-quinazolin-2-yl)-methyl-amino]-methyl}-phenyl)-ethyl]-1,3,3-trimethyl-urea]
108 to 111 °C | COc1cc2[nH]c(N(C)Cc3ccc(OCCCN(C)C)cc3)nc(=O)c2c(OC)c1OC [Example 48, 2-{[4-(3-Dimethylamino-propoxy)-benzyl]-methyl-amino}-5,6,7-trimethoxy-1H-quinazolin-4-one]
174.9 to 176 °C | COc1cc2[nH]c(N(C)Cc3cccc(CN(C)C)c3)nc(=O)c2c(C)c1OC [Example 56, 2-[(3-Dimethylaminomethyl-benzyl)-methyl-amino]-6,7-dimethoxy-5-methyl-1H-quinazolin-4-one]
211 to 214 °C | COc1cc2[nH]c(N(C)Cc3cccc(NC4=NCCC4)c3)nc(=O)c2cc1OC [Example 87, 2-{[3-(4,5-Dihydro-3H-pyrrol-2-ylamino)-benzyl]-methyl-amino}-6,7-dimethoxy-1H-quinazolin-4-one]
240 to 244 °C | COc1cc2[nH]c(N(C)Cc3cccc(N4C=NC(C)(C)C4)c3)nc(=O)c2cc1OC [Example A-12, 2-{[3-(4,4-Dimethyl-4,5-dihydro-imidazol-1-yl)-benzyl]-methyl-amino}-6,7-dimethoxy-1H-quinazolin-4-one]
150.1 to 152 °C | COCCCOc1cccc(CN(C)c2nc(=O)c3c(C)c(OC)c(OC)cc3[nH]2)c1 [Example 162, 6,7-Dimethoxy-2-{[3-(3-methoxy-propoxy)-benzyl]-methyl-amino}-5-methyl-1H-quinazolin-4-one]
205.4 to 207.8 °C | COc1cc2[nH]c(N(C)Cc3cccc(N4CCN(C)C4=O)c3)nc(=O)c2c(OC)c1OC [Example 263, 5,6,7-Trimethoxy-2-{methyl-[3-(3-methyl-2-oxo-imidazolidin-1-yl)-benzyl]-amino}-1H-quinaozlin-4-one]
